pIC50: −log10 of the molar value. Some results are limits rather than exact numbers.

Usually pIC50 stands for the negative decadic logarithm of the IC50, by convention in mol/L. The low end stands for a large IC50, the high end for a small IC50.

The test concerns the target LSD-1 enzyme (Homo sapiens (Human), UniProt O60341). The test can be described thus: LANCE LSD1/KDM1A demethylase assay (LSD1 histone demethylase biochemical assay). As to conditions: 1 nM LSD-1 enzyme, 1 hour preincubation at 25° C., 0.4 μM Biotin-labeled Histone H3 peptide substrate. On the procedure: LSD1 Histone Demethylase Biochemical Assay
LANCE LSD1/KDM1A demethylase assay-10 μL of 1 nM LSD-1 enzyme (ENZO BML-SE544-0050) in the assay buffer (50 mM Tris, pH 7.5, 0.01% Tween-20, 25 mM NaCl, 5 mM DTT) were preincubated for 1 hour at 25° C. with 0.8 μL compound/DMSO dotted in black 384 well polystyrene plates. […] Reactions were stopped by addition of 10 μL 1× LANCE Detection Buffer (PerkinElmer CR97-100) supplemented with 1.5 nM Eu-anti-unmodified H3K4 Antibody (PerkinElmer TRF0404), and 225 nM LANCE Ultra Streptavidin (PerkinElmer TRF102) along with 0.9 mM Tranylcypromine-HCl (Millipore 616431). After stopping the reactions plates were incubated for 30 minutes and read on a PHERAstar FS plate reader (BMG Labtech).
For orientation: In TR-FRET formats the signal depends on donor and acceptor labels being close together.
Regarding `Cc1ccc(-c2c(-c3ccc(C#N)cc3)nc(OC[C@@H]3CCNC3)c3nc(CCN(C)C)cn23)cc1` [Example 47, 4-{2-[2-(dimethylamino)ethyl]-5-(4-methylphenyl)-8-[(3R)-pyrrolidin-3-ylmethoxy]imidazo[1,2-a]pyrazin-6-yl}benzonitrile], the pIC50 was at least 7.30.
Molecule `CN1CCC[C@@H](COc2nc(-c3ccc(C#N)cc3)c(-c3ccc(N(C)CC4CCCO4)nc3)n3ccnc23)C1` (stereo partly drawn) [Example 52, 4-(8-{[(3R)-1-methylpiperidin-3-yl]methoxy}-5-{6-[methyl(tetrahydrofuran-2-ylmethyl)amino]pyridin-3-yl}imidazo[1,2-a]pyrazin-6-yl)benzonitrile] showed a pIC50 of at least 7.30.
As for `CN1CCC[C@@H](COc2nc(-c3ccc(C#N)cc3)c(-c3cnc4c(ccn4C)c3)n3ccnc23)C1` [Example 53, 4-[8-{[(3R)-1-methylpiperidin-3-yl]methoxy}-5-(1-methyl-1H-pyrrolo[2,3-b]pyridin-5-yl)imidazo[1,2-a]pyrazin-6-yl]benzonitrile], the pIC50 is at least 7.30.
Turning to `CN(C)C1CCN(c2nc(-c3ccc(C#N)cc3)c(-c3ccc(N4CCCC4=O)nc3)n3ccnc23)CC1` [Example 57, 4-{8-[4-(dimethylamino)piperidin-1-yl]-5-[6-(2-oxopyrrolidin-1-yl)pyridin-3-yl]imidazo[1,2-a]pyrazin-6-yl}benzonitrile], the pIC50 is at least 7.30.
For the molecule `CN(C)C1CCN(c2nc(-c3ccc(C#N)cc3)c(-c3cnc4c(cnn4C)c3)n3ccnc23)CC1` [Example 58, 4-[8-[4-(dimethylamino)piperidin-1-yl]-5-(1-methyl-1H-pyrazolo[3,4-b]pyridin-5-yl)imidazo[1,2-a]pyrazin-6-yl]benzonitrile], the pIC50 was at least 7.30.
`CN(C)C1CCN(c2nc(-c3ccc(C#N)cc3)c(-c3ccc4c(c3)oc(=O)n4C)n3ccnc23)CC1` [Example 59, 4-[8-[4-(dimethylamino)piperidin-1-yl]-5-(3-methyl-2-oxo-2,3-dihydro-1,3-benzoxazol-6-yl)imidazo[1,2-a]pyrazin-6-yl]benzonitrile] showed a pIC50 of at least 7.30.
`CN1C(=O)COc2cc(-c3c(-c4ccc(C#N)cc4)nc(N4CCC(N(C)C)CC4)c4nccn34)ccc21` [Example 60, 4-[8-[4-(dimethylamino)piperidin-1-yl]-5-(4-methyl-3-oxo-3,4-dihydro-2H-1,4-benzoxazin-7-yl)imidazo[1,2-a]pyrazin-6-yl]benzonitrile] had a pIC50 of at least 7.30.
In turn, `CN(C)C1CCN(c2nc(-c3ccc(C#N)cc3)c(-c3cc4oc(=O)n(C)c4cc3F)n3ccnc23)CC1` [Example 62, 4-[8-[4-(dimethylamino)piperidin-1-yl]-5-(5-fluoro-3-methyl-2-oxo-2,3-dihydro-1,3-benzoxazol-6-yl)imidazo[1,2-a]pyrazin-6-yl]benzonitrile] had a pIC50 of at least 7.30.
`Cn1ncc2cc(-c3c(-c4ccc(C#N)cc4)nc(OC[C@@H]4CCCN(CCO)C4)c4nccn34)ccc21` [Example 65, 4-[8-{[(3R)-1-(2-hydroxyethyl)piperidin-3-yl]methoxy}-5-(1-methyl-1H-indazol-5-yl)imidazo[1,2-a]pyrazin-6-yl]benzonitrile]: the pIC50 was at least 7.30.
Turning to `CN(C)C1CCN(c2nc(-c3ccc(C#N)cc3)c(-c3cnc4c(c3)oc(=O)n4C)n3ccnc23)CC1` [Example 66, 4-[8-[4-(dimethylamino)piperidin-1-yl]-5-(3-methyl-2-oxo-2,3-dihydro[1,3]oxazolo[4,5-b]pyridin-6-yl)imidazo[1,2-a]pyrazin-6-yl]benzonitrile], the pIC50 was at least 7.30.
The molecule `CN(C)C1CCN(c2nc(-c3ccc(C#N)cc3)c(-c3ccc(N4CCOC4=O)nc3)n3ccnc23)CC1` [Example 67, 4-{8-[4-(dimethylamino)piperidin-1-yl]-5-[6-(2-oxo-1,3-oxazolidin-3-yl)pyridin-3-yl]imidazo[1,2-a]pyrazin-6-yl}benzonitrile] gave a pIC50 of at least 7.30.
Regarding `CN(C)C1CCN(c2nc(-c3ccc(C#N)cc3)c(-c3ccc4c(c3)c(N)nn4C)n3ccnc23)CC1` [Example 68, 4-{5-(3-amino-1-methyl-1H-indazol-5-yl)-8-[4-(dimethylamino)piperidin-1-yl]imidazo[1,2-a]pyrazin-6-yl}benzonitrile], the pIC50 was at least 7.30.
For the molecule `Cc1ccc(-c2c(-c3ccc(C#N)cc3)nc(OC[C@@H]3CCCN(C)C3)c3nccn23)cc1C#N` [Example 69, 5-(6-(4-cyanophenyl)-8-{[(3R)-1-methylpiperidin-3-yl]methoxy}imidazo[1,2-a]pyrazin-5-yl)-2-methylbenzonitrile], the pIC50 was at least 7.30.
Consider `Cc1ccc(-c2c(-c3ccc(C#N)cc3)nc(OC[C@@H]3CCCN(C)C3)c3nccn23)cc1CO` [Example 70, 4-(5-[3-(hydroxymethyl)-4-methylphenyl]-8-{[(3R)-1-methylpiperidin-3-yl]methoxy}imidazo[1,2-a]pyrazin-6-yl)benzonitrile], for which the pIC50 was at least 7.30.
In the case of `Cc1cc(-c2c(-c3ccc(C#N)cc3)nc(OC[C@@H]3CCCN(C)C3)c3nccn23)ccc1CO` [Example 72, 4-(5-[4-(hydroxymethyl)-3-methylphenyl]-8-{[(3R)-1-methylpiperidin-3-yl]methoxy}imidazo[1,2-a]pyrazin-6-yl)benzonitrile], the pIC50 was at least 7.30.
Take `CN1CCC[C@@H](COc2nc(-c3ccc(C#N)cc3)c(-c3ccc4c(c3)C(O)CC4)n3ccnc23)C1` (stereo partly drawn) [Example 73, 4-(5-(3-hydroxy-2,3-dihydro-1H-1-inden-5-yl)-8-{[(3R)-1-methylpiperidin-3-yl]methoxy}imidazo[1,2-a]pyrazin-6-yl)benzonitrile]: the pIC50 is at least 7.30.
On to `CN1CCC[C@@H](COc2nc(-c3ccc(C#N)cc3)c(-c3cc(F)c4c(c3)C(O)CC4)n3ccnc23)C1` (stereo partly drawn) [Example 79, 4-(5-(7-fluoro-3-hydroxy-2,3-dihydro-1H-inden-5-yl)-8-{[(3R)-1-methylpiperidin-3-yl]methoxy}imidazo[1,2-a]pyrazin-6-yl)benzonitrile], for which the pIC50 was at least 7.30.
`CN1CCC[C@@H](COc2nc(-c3ccc(C#N)cc3)c(-c3ccc4c(c3)CCC4O)n3ccnc23)C1` (stereo partly drawn) [Example 80, 4-(5-(1-hydroxy-2,3-dihydro-1H-inden-5-yl)-8-{[(3R)-1-methylpiperidin-3-yl]methoxy}imidazo[1,2-a]pyrazin-6-yl)benzonitrile]: the pIC50 was at least 7.30.
`Cc1cc(-c2c(-c3ccc(C#N)cc3)nc(OC[C@@H]3CCCN(C)C3)c3nccn23)cc(F)c1CO` [Example 81, 4-(5-[3-fluoro-4-(hydroxymethyl)-5-methylphenyl]-8-{[(3R)-1-methylpiperidin-3-yl]methoxy}imidazo[1,2-a]pyrazin-6-yl)benzonitrile] gave a pIC50 of at least 7.30.
On to `COC(=O)N(C)Cc1ccc(-c2c(-c3ccc(C#N)cc3)nc(OC[C@@H]3CCCN(C)C3)c3nccn23)cc1F` [Example 85, methyl [4-(6-(4-cyanophenyl)-8-{[(3R)-1-methylpiperidin-3-yl]methoxy}imidazo[1,2-a]pyrazin-5-yl)-2-fluorobenzyl]methylcarbamate], for which the pIC50 was at least 7.30.
For `Cc1ccc(-c2c(-c3ccc(C#N)cc3)nc(OC[C@@H]3CCCN(C)C3)c3nccn23)cc1C(C)O` (stereo partly drawn) [Example 87, 4-(5-[3-(1-hydroxyethyl)-4-methylphenyl]-8-{[(3R)-1-methylpiperidin-3-yl]methoxy}imidazo[1,2-a]pyrazin-6-yl)benzonitrile] the value was at least 7.30.
`CN1CCC[C@@H](COc2nc(-c3ccc(C#N)cc3)c(-c3cc(F)c4c(c3)CCC4O)n3ccnc23)C1` (stereo partly drawn) [Example 88, 4-(5-(7-fluoro-1-hydroxy-2,3-dihydro-1H-inden-5-yl)-8-{[(3R)-1-methylpiperidin-3-yl]methoxy}imidazo[1,2-a]pyrazin-6-yl)benzonitrile] showed a pIC50 of at least 7.30.
Consider `Cc1ccc(-c2c(-c3ccc(C#N)cc3)nc(OC[C@@H]3CCCN(C)C3)c3nccn23)c(CO)c1` [Example 90, 4-(5-[2-(hydroxymethyl)-4-methylphenyl]-8-{[(3R)-1-methylpiperidin-3-yl]methoxy}imidazo[1,2-a]pyrazin-6-yl)benzonitrile], for which the pIC50 was at least 7.30.
`Cc1ccc(-c2c(-c3ccc(C#N)cc3)nc(OC[C@@H]3CCCN(C)C3)c3nccn23)cc1CC#N` [Example 91, 4-(5-[3-(cyanomethyl)-4-methylphenyl]-8-{[(3R)-1-methylpiperidin-3-yl]methoxy}imidazo[1,2-a]pyrazin-6-yl)benzonitrile]: the pIC50 is at least 7.30.
In turn, `Cc1cc(-c2c(-c3ccc(C#N)cc3)nc(N3CCC(N(C)C)CC3)c3nccn23)cnc1C` [Example 92, 4-[8-[4-(dimethylamino)piperidin-1-yl]-5-(5,6-dimethylpyridin-3-yl)imidazo[1,2-a]pyrazin-6-yl]benzonitrile] showed a pIC50 of at least 7.30.
In turn, `Cc1ncc(-c2c(-c3ccc(C#N)cc3)nc(N3CCC(N(C)C)CC3)c3nccn23)cc1O` [Example 94, 4-[8-[4-(dimethylamino)piperidin-1-yl]-5-(5-hydroxy-6-methylpyridin-3-yl)imidazo[1,2-a]pyrazin-6-yl]benzonitrile] showed a pIC50 of at least 7.30.
In the case of `Cc1ccc(-c2c(-c3ccc(C#N)cc3)nc(N3CCC(N(C)C)CC3)c3nccn23)cc1CO` [Example 96, 4-{8-[4-(dimethylamino)piperidin-1-yl]-5-[3-(hydroxymethyl)-4-methylphenyl]imidazo[1,2-a]pyrazin-6-yl}benzonitrile], the pIC50 is at least 7.30.

For the origin of these results see patent US10112950B2, “Substituted imidazo[1,2-a]pyrazines as LSD1 inhibitors” (Incyte Corporation, priority 2014, dated 2018).
